Experimental data: US8399430B2, “Alkylated semi synthetic glycosaminoglycosan ethers, and methods for making and using thereof” (University of Utah Research Foundation, priority 2008, dated 2013)
“Also recorded” adds a separate entry of the source.

What was measured:
P-Selectin/PSGL = molecular target: T1, P-Selectin/PSGL (Homo sapiens, UniProt P16109); assay: U937 monocyte binding to P-selectin (cell binding assay); settings: Table 2; U937 binding to P-selectin-Fc
T1 construct: purchased R&D Systems (Minneapolis, Minn.)
Description: (§1) Cell Binding Assays. The effect of SAGEs on binding of U937 monocytes to P-selectin or RAGE was studied in high-bind micro plates coated with 8 μg/ml protein A ([…]) in 0.2 M carbonate-bicarbonate buffer (pH 9.4). Plates were washed with phosphate buffered saline containing 1% BSA (PBS-BSA), and P-selectin-Fc or RAGE-Fc chimera (50 μL containing 1 μg) was added to each well and incubated for 2 h at room temperature or overnight at 4° C., respectively. Following incubation, wells were washed twice with PBS-BSA. […] As a negative control, 50 μL of 10 mM EDTA was added to select wells to prevent cell binding through sequestration of calcium. At the end of the incubation period, 50 μL of U937 cells (10^5 cells/well, calcein-labeled according to manufacturer's instructions) were added to each well and plates were incubated an additional 30 min at room temperature. The wells were then washed thrice with PBS, and bound cells were lysed by addition of 100 μL of Tris-TritonX-100 containing buffer. Fluorescence was measured on a microplate reader using excitation of 494 nm and emission of 517 nm.

RAGE/Mac-1 = molecular target: T2, RAGE/Mac-1 (Homo sapiens, UniProt Q15109); assay: U937 monocyte binding to RAGE (cell binding assay); settings: Table 2; U937 binding to RAGE-Fc
T2 construct: purchased R&D Systems (Minneapolis, Minn.)
Description: as §1

RAGE/CML-BSA = molecular target: T3, RAGE/CML-BSA (Homo sapiens, UniProt Q15109); assay: Solid phase binding assay, RAGE to CML-BSA; settings: Table 2
T3 construct: purchased R&D Systems (Minneapolis, Minn.)
Description: (§2) Solid phase binding assays. Solid phase binding assays were used to study the ability of SAGEs to inhibit RAGE binding to its ligands. For studies of the effect of SAGEs on RAGE binding to its ligands, polyvinyl 96-well plates were coated with 5 μg/well of specific ligand (CML-BSA, HMGB-I or S100b calgranulin). Plates were incubated overnight at 4° C. and washed thrice with PBS-0.05% Tween-20 (PBST). Separately, RAGE-Fc chimera (100 μL containing 0.5 μg/ml in PBST-0.1% BSA) was incubated with an equal volume of serially diluted SAGEs (0.001 to 1,000 μg/ml in PBST-BSA) overnight at 4° C. The following day, 50 μL of RAGE-SAGE mix was transferred to each respective ligand-coated well and incubated at 37° C. for 2 h. Wells were then washed four times with PBST. To detect bound RAGE, 50 μL of anti-RAGE antibody (0.5 μg/ml) was added to each well, the mixture was incubated for 1 h at room temperature, and wells were washed again four times with PBST. Horse-radish peroxidase conjugated secondary antibody (1:10,000 antibody dilution in PBST; 50 μL per well) was added, wells were incubated for 1 h at room temperature, and then washed once with PBST. A colorimetric reaction was initiated by addition of 50 μL of tetramethyl benzidine chromogen (TMB single solution chromogen) and terminated after 15 min by addition of 50 μL of 1 N HCl. Absorbance at 450 nm was read using an automated microplate reader.

RAGE/S100B = molecular target: T4, RAGE/S100B (Homo sapiens, UniProt Q15109); assay: Solid phase binding assay, RAGE to S100b calgranulin; settings: Table 2
T4 construct: purchased R&D Systems (Minneapolis, Minn.)
Description: as §2

RAGE/HMGB1 = molecular target: T5, RAGE/HMGB1 (Homo sapiens, UniProt Q15109); assay: Solid phase binding assay, RAGE to HMGB-1 (amphoterin); settings: Table 2
T5 construct: purchased R&D Systems (Minneapolis, Minn.)
Description: as §2

human leukocyte elastase = molecular target: T6, human leukocyte elastase (Homo sapiens, UniProt P08246); assay: Human leukocyte elastase activity assay, chromogenic substrate; assay type: biochemical; settings: for Leukocyte Elastase: Table 2
T6 sequence (P08246 30-267): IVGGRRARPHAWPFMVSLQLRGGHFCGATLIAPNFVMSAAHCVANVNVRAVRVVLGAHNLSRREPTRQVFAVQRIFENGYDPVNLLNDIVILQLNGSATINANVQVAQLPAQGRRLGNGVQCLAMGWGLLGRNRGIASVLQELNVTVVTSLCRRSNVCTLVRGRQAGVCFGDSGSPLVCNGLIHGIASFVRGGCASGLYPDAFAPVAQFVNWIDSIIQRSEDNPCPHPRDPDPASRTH
From the text: Enzymatic assays. […] Nat Biotech 26:669-675, 2008).

ARPE-19 cells = assay: AGE-induced apoptosis of ARPE-19 cells (Live/Dead stain); assay type: cell-based, human; settings: AGE-BSA 25 μM, 40 h, test substance 200 μM
Description: The ability of AGE products to induce RPE cell apoptosis was investigated. ARPE-19 cells were grown to confluence on round coverslips, then transferred to new dishes for exposure to 25 μM AGE-BSA for 40 h. Apoptosis was then assayed with Molecular Probes Fixable Live/Dead Cell Stain Kit (LI 1101, Eugene, Oreg.). […] Nuclei are stained […] with DAPI; dead cells are stained green. A. BSA control. Some dead cells are noted at the edges of the coverslip, but live and dead cells are interspersed at the interface. B. AGE-BSA (25 μM). Significant cell death is seen around the edges, and the boundary between live and dead cells is stark. C. AGE-BSA (25 μM)+ODSH (200 μM). […] D. AGE-BSA (25 μM)+P-OSMeHA (200 μM) (GM-11 1101). […] Apoptosis appeared to advance inward from the edges of cells cultured on round cover slips. RAGE is prominently expressed in RPE cells where it may be selectively expressed on the basal membrane as in other human epithelial cells. […] In contrast, AGE in drusen, which accumulates between retinal pigment epithelium and Bruch's membrane, would have ready access to basally located RAGE, optimally positioning AGE/RAGE signaling to mediate the localized RPE apoptosis that constitutes so-called “geographic atrophy” in age-related macular degeneration. […]

RAGE = assay: CML-BSA-induced RAGE expression in ARPE-19 cells (immunoblot); assay type: cell-based, human; settings: cells grown on CML-BSA
From the text: Activated complement and RAGE induce angiogenic and pro-inflammatory signaling in cultured RPE cells. Experiments studying the biology of RAGE in cultured RPE cells using the ARPE-19 human RPE cell line were consucted. As shown in immunoblots (FIG. 17), ARPE-19 cells express at least 4 isoforms of RAGE ranging from 45-50 kDa in cell lysates, and secrete these isoforms into conditioned media. […] Because RAGE ligation activates the transcription factor NF-κB, enhanced expression of RAGE greatly promotes pro-inflammatory signaling. […] This would prevent “feed-forward” pro-inflammatory increases in RAGE expression itself by RAGE ligation.

LL-37 injected skin = assay: SAGE topical treatment LL-37 rosacea model; assay type: in vivo, Balb/c mice; settings: topical administration
Description: SAGE topical treatment rosacea model. Balb/c mice were shaved […] area of skin on the back. We then began topical application of a hyaluronan-cased emollient containing 5% SAGEs (active emollient) or hyaluronic acid based emollient alone to this area of skin every 12 hours. Twenty-four hours later, we injected 40 μL of vehicle (PBS) or cationic peptide (at 320 μM concentration) subcutaneously into the shaved skin in the manner described previously. Injections and topical emollient applications were repeated every 12 h thereafter. Forty-eight hours after the initial injection (four injections in total), animals were lightly anesthetized as described previously. […] The intensity of erythema was assessed as a redness score (from 1 to 5), and the area of erythema was measured with calipers. […]
Myeloperoxidase (MPO) assay. […] Tissue MPO activity was measured using a method by Suzuki et. al. (Suzuki K, Ota H, Sasagawa S, Sakatani T, Fujikura T. Assay method for myeloperoxidase in human polymorphonuclear leukocytes. Anal Biochem 132:345-352, 1983) as modified by Young et. al. (Young J M, Spires D A, Bedord C J, Wagner B, Ballaron S J, De oung L M. The mouse ear inflammatory response to typical arachidonic acid. J Invest Dermatol 82:367-371, 1984). […] The homogenate was transferred quantitatively to a microcentrifuge tube with an additional 0.75 mL HTAB in PBS. […]

[1] = molecular target: T7, Hageman factor (Factor XII) (Homo sapiens, UniProt P00748)
T7 sequence (P00748 20-615): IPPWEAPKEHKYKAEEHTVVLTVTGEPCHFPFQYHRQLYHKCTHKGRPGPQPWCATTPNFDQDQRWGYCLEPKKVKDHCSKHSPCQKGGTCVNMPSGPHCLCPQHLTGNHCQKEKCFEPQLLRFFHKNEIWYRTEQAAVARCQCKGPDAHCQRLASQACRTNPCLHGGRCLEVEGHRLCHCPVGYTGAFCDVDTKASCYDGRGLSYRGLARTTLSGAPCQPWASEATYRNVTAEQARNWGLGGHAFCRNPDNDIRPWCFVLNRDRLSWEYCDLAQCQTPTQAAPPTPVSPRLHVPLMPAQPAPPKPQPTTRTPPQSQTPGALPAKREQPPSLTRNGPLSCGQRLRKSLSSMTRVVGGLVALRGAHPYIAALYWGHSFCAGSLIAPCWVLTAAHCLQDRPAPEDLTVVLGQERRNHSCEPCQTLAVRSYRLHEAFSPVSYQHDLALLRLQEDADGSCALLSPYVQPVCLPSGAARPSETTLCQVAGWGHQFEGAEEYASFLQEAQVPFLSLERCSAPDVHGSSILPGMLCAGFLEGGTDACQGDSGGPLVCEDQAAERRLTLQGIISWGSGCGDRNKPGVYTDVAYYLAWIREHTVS
Description: Enzymatic assays. […] Pooled human plasma (5 μl) was incubated with 100 μl of SAHA (0.1 to 1000 μg/ml) in 0.05 M HEPES containing Triton X-100 for 5 min at 5° C.
SAGEs were screened for their ability to stimulate intrinsic coagulation (activation of Hageman factor). Pooled human plasma was incubated with heparin or low molecular weight (Lmw) sulfated and fluoroalkylated HAs (Lmw-OSFHA-1, Lmw-OSFHA-2) and amidolytic activity was determined using the substrate D-cyclohydrotyrosyl-Gly-Arg-p-NA.

[2] = tested on: human neonatal epidermal keratinocytes; assay: Keratinocyte proliferation assay; assay type: cell-based; settings: high molecular weight derivatives, 100 μg/ml, FIG. 8
Description: Fourth, SAGEs are potent inhibitors of the proliferation of human keratinocytes. In these assays human neonatal epidermal keratinocytes were cultured in the presence and absence of SAGEs or other inhibitors, and proliferation was measured by adding a dye that is reduced in direct proportion to the number of viable cells present.

nHEK cells = assay: Cytotoxicity (MTS); assay type: cell-based, human; settings: up to 10 mg/ml

T1 sequence (P16109 with tags, fused parts or gaps limits assumed): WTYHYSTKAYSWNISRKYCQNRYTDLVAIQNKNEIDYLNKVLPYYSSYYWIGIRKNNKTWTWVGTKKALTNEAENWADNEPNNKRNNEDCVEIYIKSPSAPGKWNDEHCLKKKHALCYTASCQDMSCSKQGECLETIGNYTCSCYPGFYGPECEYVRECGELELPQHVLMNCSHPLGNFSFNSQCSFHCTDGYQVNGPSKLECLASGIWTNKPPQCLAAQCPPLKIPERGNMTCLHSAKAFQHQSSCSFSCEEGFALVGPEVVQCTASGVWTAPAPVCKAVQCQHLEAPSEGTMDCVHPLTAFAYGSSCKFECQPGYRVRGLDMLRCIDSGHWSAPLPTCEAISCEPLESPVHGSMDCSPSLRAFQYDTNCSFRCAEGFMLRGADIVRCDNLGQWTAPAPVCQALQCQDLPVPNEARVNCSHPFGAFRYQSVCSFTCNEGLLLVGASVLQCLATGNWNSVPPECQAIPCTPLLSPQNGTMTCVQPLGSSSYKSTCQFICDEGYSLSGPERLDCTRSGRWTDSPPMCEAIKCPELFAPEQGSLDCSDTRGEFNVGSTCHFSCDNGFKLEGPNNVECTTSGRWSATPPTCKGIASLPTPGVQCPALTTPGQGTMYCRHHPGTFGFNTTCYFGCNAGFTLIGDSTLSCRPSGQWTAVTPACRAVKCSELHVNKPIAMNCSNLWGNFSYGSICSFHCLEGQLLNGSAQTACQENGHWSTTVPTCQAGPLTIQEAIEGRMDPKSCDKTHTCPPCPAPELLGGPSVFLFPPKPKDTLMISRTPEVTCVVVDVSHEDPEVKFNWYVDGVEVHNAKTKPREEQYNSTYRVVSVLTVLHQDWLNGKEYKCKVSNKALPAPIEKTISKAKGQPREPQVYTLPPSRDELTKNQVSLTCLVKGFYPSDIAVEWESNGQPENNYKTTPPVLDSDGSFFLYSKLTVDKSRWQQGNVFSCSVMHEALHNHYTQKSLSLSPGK
T3 sequence (Q15109 with tags, fused parts or gaps limits assumed): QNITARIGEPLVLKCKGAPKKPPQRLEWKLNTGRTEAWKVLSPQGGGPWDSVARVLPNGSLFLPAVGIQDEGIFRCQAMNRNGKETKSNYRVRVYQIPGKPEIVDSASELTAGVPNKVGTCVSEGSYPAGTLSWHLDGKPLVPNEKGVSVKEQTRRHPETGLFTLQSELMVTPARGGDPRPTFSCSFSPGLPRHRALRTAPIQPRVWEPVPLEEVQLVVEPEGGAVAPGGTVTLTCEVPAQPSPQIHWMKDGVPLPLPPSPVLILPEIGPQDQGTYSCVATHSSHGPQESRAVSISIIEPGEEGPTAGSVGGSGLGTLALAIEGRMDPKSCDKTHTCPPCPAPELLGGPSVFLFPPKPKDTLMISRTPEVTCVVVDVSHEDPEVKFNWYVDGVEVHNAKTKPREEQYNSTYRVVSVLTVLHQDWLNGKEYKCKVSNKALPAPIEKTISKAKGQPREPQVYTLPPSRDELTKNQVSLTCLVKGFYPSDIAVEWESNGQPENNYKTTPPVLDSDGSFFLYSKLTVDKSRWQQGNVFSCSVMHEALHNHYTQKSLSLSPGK
T4 sequence (Q15109 with tags, fused parts or gaps limits assumed): as above
T2 sequence (Q15109 with tags, fused parts or gaps limits assumed): as above
T5 sequence (Q15109 with tags, fused parts or gaps limits assumed): as above

Row | Substance | P-Selectin/PSGL (P-Selectin/PSGL) [µg/mL] | RAGE/Mac-1 (RAGE/Mac-1) [µg/mL] | RAGE/CML-BSA (RAGE/CML-BSA) [µg/mL] | RAGE/S100B (RAGE/S100B) [µg/mL] | RAGE/HMGB1 (RAGE/HMGB1) [µg/mL] | Leukocyte Elastase (human leukocyte elastase) [µg/mL] | AGE-induced apoptosis (ARPE-19 cells) | up-regulation of RAGE expression (RAGE) | inflammation and MPO activities, SAGE vs. HA (LL-37 injected skin) | Hageman Factor [1] [µg/mL] | IC50 (human leukocyte elastase; FIG. 4, read-out: IC50 for HLE) [nM] | inhibition of keratinocyte proliferation [2] | toxicity to nHEK cells (nHEK cells)
1 | 2-0, 3-0 desulfated heparin [ODSH, reference compound] | 1.1 | 0.09 | 8.6 | 4.2 | 0.23 | 0.22 | Apoptosis is reduced; also recorded: inhibited | prevented up-regulation of RAGE expression | – | – | – | – | –
2 | Hyaluronic Acid [HA, reference compound] | – | – | – | – | – | – | – | – | did not alleviate inflammation | – | – | – | –
3 | P—OSFHA-1(DS 1) [GM-231101] | 12.048 | – | – | 14.6 | – | 0.185 | – | – | – | 400 | – | – | –
4 | P—OSFHA-1(DS 2) [GM-231201] | 0.126 | 28.4 | 2.579 | 8.82 | – | 0.487 | – | – | – | 400 | – | – | –
5 | P—OSFHA-2(DS 1) [GM-331101] | 8.958 | – | – | 4.557 | – | 0.375 | – | – | – | 400 | – | – | –
6 | P—OSFHA-2(DS 2) [GM-331201] | – | – | 1.682 | 2.28 | – | 0.353 | – | – | – | 40 | – | – | –
7 | P—OSMeHA(DS 1) [GM-131101] | 5.61 | 0.51 | 6.09 | 31.069 | 2.68 | 0.285 | – | – | – | – | 3.46 | less active | non-toxic
8 | P—OSMeHA(DS 2) [GM-131201] | 0.5 | 0.3 | 0.044 | 0.06 | – | 0.42 | – | – | – | 0.4 | – | – | –
